Measured values reported in patent publication US20230414657A1, “Novel compositions for neutralizing toxic effects of hydrogen peroxide in living cells or tissues” (Dzala LLC, priority 2020, published 2023).

What was measured:
Format in all cases: in vivo
[1] = system: C. elegans; test: Oxygen consumption rate (OCR), Seahorse XFe96; settings: 100 mM H2O2 plus supplement (10 mM GA, 100 μM glycine or 500 μM L-serine)
Method: Oxygen consumption of worms was measured with a Seahorse XFe96 system (Seahorse Bioscience, North Billerica, MA), as previously described^4. L3 larvae of the different strains were grown on plates or in liquid culture and supplemented for 2-4 days as described for each experiment. After removing bacteria and debris, approximately 100 worms were pipetted into each well of a 96-well Seahorse XF^e assay plate and OCR was measured until it stabilized. Then, 3 subsequent measurements were made at 6.5-min intervals. Finally, the exact number of worms in each well was counted and used for normalization. A small number of abnormal readings were also filtered out at this stage. On average, 7-8 wells (technical replicates) were used for each condition. Normalized OCR values were averaged for the last 3 measurements for each strain and condition. Four biological replicates were analyzed for each condition.

[2] = system: C. elegans; test: H2O2 accumulation in worms (Amplex Red); settings: co-supplemented with peroxide and GA vs peroxide alone, 3 days
Method: Hydrogen peroxide was measured using the Amplex Red hydrogen peroxide/peroxidase assay kit (Molecular Probes, Eugene, OR), adapting the protocol to C. elegans. In the presence of hydrogen peroxide, Amplex Red is oxidized by horseradish peroxidase to form a red-fluorescent oxidation product whose fluorescence intensity can be measured.
To measure ROS production from C. elegans, 5000-7000 L1 worms were exposed to each condition for 2-3 days as indicated and then washed four times in 1 ml of the reaction buffer supplied with the kit. Volumes were adjusted to 700-1200 nematodes/50 μl and 50 μl was pipetted into a 96-well plate. A total of 50 μl of the Amplex Red reaction buffer was then added to the wells, and after 1 hr fluorescence was measured with a fluorescence microplate reader using excitation at 530±12.5 nm and fluorescence detection at 590±17.5 nm. Background fluorescence, determined for a no-H2O2 control reaction, was subtracted from each value. The significance of differences between conditions was determined by an unpaired fest. GraphPadPrism 8.0 was used for these calculations. Three biological replicates were carried out for each condition.

[3] = system: C. elegans; test: Peroxide treatment of mutant, RNAi or unstressed worms: MMP, OCR and growth read together
Source text: C. elegans wild-type (N2) strain was received from Caenorhabditis Genetics Center, USA. Mutant strains were generated using the following primers. Idh-1: […] and […]; C31C9.2 (ghpr-1): […] and […]and F41E6.5 (gox-1): […]and[…]. […] Progeny of the rescued strains were genotyped for homozygous deletion with PCR primers for three generations. All mutants were outcrossed at least twice with the wild type to eliminate background mutations. Double and triple mutants were obtained by crossing single or double mutants and selecting the homozygous progeny by PCR.
For RNAi experiments in liquid, E. coli HT115 containing L4440 empty vector or the indicated cDNA fragment in L4440 was inoculated in 100 ml of LB containing 100 μg/ml ampicillin and incubated overnight at 37° C. in a shaking incubator at 250 rpm. To induce the production of dsRNA, a final concentration 0.8 mM IPTG was added to the collected bacterial pellet diluted 100-fold and incubated overnight at 25° C. in a shaking incubator at 250 rpm. Bacteria were then pelleted by centrifugation at 4000 rpm for 5 mins and resuspended in 200 μl S-medium containing 100 μg/ml ampicillin and 0.8 mM IPTG.
A population of synchronized L1 larvae was added to 30-ml glass tubes containing 2.5 ml of S-complete medium (liquid culture)^2 and NA22 or induced RNAi bacteria at an OD600 of 1.9. […] Worms were incubated at 15° C. and 150 rpm in a shaking incubator for 2-6 days, refreshing the medium every 2 days.
Mitochondrial staining was performed as described previously^3,4. Briefly, L1 worms were grown on plate or in liquid culture for 2-3 days at 15° C. Subsequently, they were pelleted in a 15-ml tube, rinsed twice with H2O and resuspended in 100 μl of M9. 5 μM MitoTracker Red CMXRos (Thermo Fisher Scientific, Germany) in DMSO was added to the worm suspension and incubated in this solution for 1.5 hr at room temperature in the dark. Next, the excess dye was washed off with M9 buffer and worms were incubated in 100 μl M9 for 30 min to eliminate the excess dye in the gut. Finally, worms were paralyzed with 0.5 mM Levamizol (Sigma-Aldrich), placed on slides covered with a thin layer of 2% agarose on top of which the coverslip (22×22 mm, Menzel-Glaser no. 1) was fixed using nail polish. We used a Zeiss LSM 700 inverted laser scanning confocal microscope and a Zeiss LCI Plan-Neofluar 63×/1.3 ImmCorr DIC M27 objective to image mitochondria (Zeiss, Germany). MitoTracker Red CMXRos was excited at 555 nm and the emission above 560 nm was acquired by the second PMT. Optical sections at 0.1×0.1×0.5 μm^3 x-y-z resolution were collected in a 4D hyperstack. Final images were adjusted for intensity and merged in Fiji. No non-linear adjustments were made.
Synchronized L1 worms were incubated at 15° C. on plates or in liquid culture and exposed to different conditions as indicated. Single worms were selected randomly from the plates or aliquots were taken from the liquid cultures and added to NGM plates for immediate visualization. 25 worms per treatment were measured at 24-48 hr intervals and all growth curves were done four times. Images were analyzed using FIJI (Image J) software, with length measurements derived by the sum-total of a number of segmented lines of known length, down the center of the worm as described previously^5.
Oxygen consumption of worms was measured with a Seahorse XFe96 system (Seahorse Bioscience, North Billerica, MA), as previously described^4. L3 larvae of the different strains were grown on plates or in liquid culture and supplemented for 2-4 days as described for each experiment. After removing bacteria and debris, approximately 100 worms were pipetted into each well of a 96-well Seahorse XF^e assay plate and OCR was measured until it stabilized. Then, 3 subsequent measurements were made at 6.5-min intervals. Finally, the exact number of worms in each well was counted and used for normalization.

Q: Which results are given for `O=C(O)CO` [GA, glycolic acid]?
A: Respiration rate (OCR) [1]: able to restore both traits; Accumulation of H2O2 [2]: diminished; Impact on any of the parameters analyzed (FIGS. 1 and 2) ([3]; GA supplementation in the absence of H2O2): does not have a significant impact; Restoration of MMP, OCR or growth rate ([3]; H2O2, RNAi against mel-32 or gcst-1): none of these three compounds were able to restore; MMP, OCR, growth rate ([3]; H2O2, worms fed with empty vector RNAi bacteria): restored parameters; Glycolate-mediated protection (MMP, OCR, growth) ([3]; ghpr-1, gox-1, ldh-1 triple mutant, H2O2): totally abolished; Effect of glycolate on MMP, oxygen consumption rate and developmental rate ([3]; ghpr-1 deletion mutant, H2O2 treatment): significantly reduced effect; Effect of glycolate on MMP, OCR or growth ([3]; single mutants of gox-1 and ldh-1 or their double mutants, H2O2): no reduction in the effect
